In patent publication US20100261682A1, “Method and Means for the Treatment of Cachexia” (Bioneris AB, priority 2007, published 2010):

How the values were obtained:
eIF2α = experiment: Western blot of gastrocnemius muscle: phospho eIF2α/total eIF2α; assay type: in vivo, NMRI mice; conditions: 40 mg/kg; tumour-bearing animals
Protocol: (§1) Administration of alpha-trinositol. Mice (n=6) bearing the MAC16 tumour were treated with AT (40 mg/kg) s.c., 3 times per day, for 5 days, while a control group received PBS. Protein synthesis and degradation were determined by the incorporation and release of L-[2,6-^3H]phenylalanine, as described in Smith et al., Cancer Res., 2005; 65:277-83. On the fourth day of treatment half of the group administered 0.4 mmol/L L-[2,6-^3H]phenylalanine in PBS (100 μl) by i.p. administration.
Western blot analysis Gastrocnemius muscle (10 mg) was homogenised in Phosphosafe™ Extraction Reagent (500 μl) and centrifuged at 15000 g for 15 min. Samples of the cytosolic proteins (5 μg) were loaded on either a 10% (mTOR, myosin, eIF4E and eIF4G) 12% (PKR, eIF2α and actin) or 15% (4E-BP1) sodium dodecylsulphate-polyacrylamide gel (SDS-PAGE) and electrophoresed at 180 V for approximately 1 h. The extent of phosphorylation of 4E-BP1, and the association of 4E-BP1 and eIF4G with eIF4E was determined by Western blotting when eIF4E was extracted from the muscle samples by m^7GTP-Sepharose 4B-affinity binding, as previously described Eley ey al., Biochem J., 2007; 407:113-20, by loading 20 μg of protein. […] Blots were scanned by a densitometer to quantify differences.

20S proteasome = 20S proteasome 'chymotrypsin-like' enzyme activity in gastrocnemius muscle; assay type: in vivo, NMRI mice; conditions: 40 mg/kg s.c., 3 times per day; after 4 days treatment
Protocol: as §1
Determination of proteasome activity The activity of the 20S proteasome was determined as the ‘chymotrypsin-like’ enzyme activity, the predominant proteolytic activity of the β5 subunits of the proteasome. Gastrocnemius muscles were rinsed with ice-cold PBS and homogenised in 20 mmol/L Tris-HCl (pH 7.5), 2 mmol/L ATP, 5 mmol/L MgCl2 and 1 mmol/L DTT followed by sonication. The sonicate was centrifuged for 10 minutes at 18,000×g at 4° C., and enzyme activity in the supernatant was determined by the method of Orino et al., FEBS Lett., 1991; 284:206-10, by determining the release of amino methyl coumarin (AMC) from the fluorogenic substrate LLVY-AMC. Activity was measured in the absence and presence of the specific proteasome inhibitor lactacystin (10 mmoles/L). Only lactacystin suppressible activity was considered to be proteasome specific.

[1] = test system: PIF (proteolysis inducing factor) induced protein degradation in murine myotubes; experiment: PIF-induced protein degradation in murine myotubes; assay type: cell-based; conditions: AT 100 μM, 2 h prior to addition of PIF
Protocol: To investigate the mechanism by which AT protects lean body mass in cachexia, further experiments were carried out in vitro using murine myotubes as a surrogate model of skeletal muscle. Incubation with either PIF or angiotensin II (Ang II) induced protein degradation with a characteristic bell-shaped dose-response curve as previously reported (Smith et al., 2004, Br. J. Cancer, and Tisdale et al., 2006, Cell. Sig) with the maximal effect of PIF at 4.2 nM and Ang II at 0.5 μM (FIGS. 5 and 8).

MAC16 tumour = experiment: Tumour volume in MAC16 tumour-bearing mice treated with alpha-trinositol (Example 1); assay type: in vivo, NMRI mice; conditions: 10 mg/kg s.c. three times per day
Text: (§2) Animals. Pure strain male NMRI mice (average body weight 25 g) were transplanted with fragments of the MAC16 tumour subcutaneously into the flank by means of a trochar, selected from donor animals with established weight loss (Bibby M C et al., Characterization of transplantable adenocarcinoma in the mouse colon producing cachexia in the recipient animals. J Natl Cancer Inst 78 (1987) 539-546). Transplanted animals were given a rat and mouse breeding diet (Special Diet Services, Witham, UK) and water at lib. Weight loss was evident 10 to 12 days after tumour implantation. Just prior to the development of weight loss 24 animals were randomized into four groups (I-IV) of six animals each.
(§3) Administration of alpha-trinositol. A first experiment was started when the animals had lost about 5% of body weight. Aliquots (2.5 μl, Group I; 5 μl, Group II; 10 μl, Group III) of alpha-trinositol stock solution corresponding to doses of 10 mg/kg, 20 mg/kg, and 40 mg/kg for a 25 g animal were administered subcutaneously three times per day at 8.00, 12.00 and 16.00 hrs. The fourth group (Group IV; control) was given an intravenous injection of 10 μl of water. Body weight (FIG. 1), tumour volume (FIG. 2), and water and food intake were determined daily after the last injection.

cachectic MAC16 mice = experiment: Body composition of cachectic MAC16 mice after alpha-trinositol treatment (Example 2); assay type: in vivo, NMRI mice; conditions: for Body composition: Fat / Body composition: Lean mass / Body composition: Water: mean ± SD
Text: as §2, §3
At the end of the treatment described in Example 1 the mice were sacrificed, and their body composition was analyzed. […] The reduction of lean body mass is normally observed in cachectic patients and is a significant cause of morbidity. No significant change in water content was observed.

[2] = test system: gastrocnemius muscle protein synthesis and degradation; experiment: Protein synthesis and degradation in gastrocnemius muscle of MAC16 tumour-bearing mice; assay type: in vivo, NMRI mice; conditions: 40 mg/kg s.c., 3 times per day; p<0.001 vs control
Protocol: as §1
Protein analysis. After 24 h the animals were terminated and the gastrocnemius muscle was removed, washed with PBS and RPMI 1640, and the release of radioactivity during incubation for 2 h in RPMI 1640 was determined. Protein bound activity was determined by homogenising the muscles in 2% perchloric acid, and determining the radioactivity in the precipitate. Protein degradation was calculated by dividing the amount of radioactivity released into the medium over a 2 h period by the specific activity of the protein-bound radioactivity. To determine protein synthesis gastrocnemius muscles were incubated for 2 h in RMPI 1640, without phenol red, in the presence of L-[2,6-^3H]phenylalanine (37 MBq), and under an atmosphere of O2/CO2 (19:1). […] The rate of protein synthesis was calculated by dividing the protein-bound radioactivity by the acid-soluble material.

[3] = alpha-Trinositol 10 (mg/ml as printed)
[4] = alpha-Trinositol 20 (mg/ml as printed)
[5] = alpha-Trinositol 40 (mg/ml as printed)

O=P(O)(O)O[C@@H]1[C@H](OP(=O)(O)O)[C@H](O)[C@@H](O)[C@H](O)[C@H]1OP(=O)(O)O [alpha-trinositol, 1-D-Myo-inositol 1,2,6-triphosphate]
expression of phospho eIF2α (ratio to total eIF2α) (eIF2α): significant decrease
chymotrypsin activity (20S proteasome activity) in gastrocnemius muscle (20S proteasome): reduced down to levels found in normal non-tumour bearing mice
effect on PIF-induced protein degradation [1]: completely attenuated protein degradation down to basal levels
tumour inhibition (MAC16 tumour): did not produce any statistically significant effect
absolute fat change from controls (cachectic MAC16 mice; [3]): −19 % by weight
absolute lean mass change from controls (cachectic MAC16 mice; [3]): +11 % by weight
Body composition: Fat (cachectic MAC16 mice; alpha-Trinositol 10 (mg/ml as printed), control 6.1 ± 2.1): 4.9 ± 2.3 % by weight
Body composition: Lean mass (cachectic MAC16 mice; alpha-Trinositol 10 (mg/ml as printed), control 26.1 ± 1.6): 27.1 ± 3.0 % by weight
Body composition: Water (cachectic MAC16 mice; alpha-Trinositol 10 (mg/ml as printed), control 67.8 ± 1.2): 68.0 ± 2.0 % by weight
absolute fat change from controls (cachectic MAC16 mice; [4]): −46 % by weight
absolute lean mass change from controls (cachectic MAC16 mice; [4]): +15 % by weight
Body composition: Fat (cachectic MAC16 mice; [4]): 3.3 ± 0.5 % by weight
Body composition: Lean mass (cachectic MAC16 mice; [4]): 28.6 ± 1.7 % by weight
Body composition: Water (cachectic MAC16 mice; [4]): 68.1 ± 1.7 % by weight
absolute fat change from controls (cachectic MAC16 mice; [5]): −39 % by weight
absolute lean mass change from controls (cachectic MAC16 mice; [5]): +25 % by weight
Body composition: Fat (cachectic MAC16 mice; [5]): 3.7 ± 1.9 % by weight
Body composition: Lean mass (cachectic MAC16 mice; [5]): 30.7 ± 2.5 % by weight
Body composition: Water (cachectic MAC16 mice; [5]): 65.6 ± 1.7 % by weight
decrease in protein degradation in the gastrocnemius muscle [2]: 20%
increase of protein synthesis in the gastrocnemius muscle [2]: 50%
